# US12433908B2, “Use of nicotinamide riboside, nicotinic acid riboside, and nicotinamide mononucleotide, reduced nicotinyl compounds, and nicotinoyl compound derivatives in infant formula for healthy development” (ChromaDex, Inc., priority 2016, dated 2025)
# “Also recorded” adds a separate entry of the source.
# Assay: Fecal SCFA analysis by gas chromatography in piglets given NR solution
# Format: in vivo, piglets (Yorkshire/Hampshire crossbred)
# Source text: Sixteen (n=16) Yorkshire/Hampshire crossbred piglets were obtained from the University of California, Davis Swine Teaching and Research Center and received on lactation day (“LD”) 14. Prior to arrive, the piglets were processed by the suppler between 1-3 days of age by administration of iron and an antibiotic ([…] for swine) as is common practice at the University of California, Davis Swine Facility. It is not common practice at the University of California, Davis Swine Facility to give a second dose of iron and antibiotics unless it becomes necessary. The piglets were from two litters (litters 15 and 17), weaned at 17 days of age, and randomly placed into one of two groups balanced for litter, sex, and weight. The animals were not acclimated to the facility at arrival and were subsequently acclimated to the test diet administration system. The piglets were weaned into a temperature-controlled room (approximately 27-29° C.) that contained 10 adjacent pens. The piglets were group-housed in the nursery room at the Swine Facility, which is an enclosed room with access restricted to trained personnel. The two groups were separated by one pen containing piglets of similar age. Each morning enough nicotinamide riboside (NR, I) in water solution was prepared for that day's dose administration according to the dose preparation protocol. At least 5 mL of prepared dose was reserved and immediately frozen after preparation each day for analysis of nicotinamide riboside (NR, I) for the purpose of confirming stability of the dose material. The doses were stored at refrigeration temperature while not in use. Nicotinamide riboside (NR, I) was dosed once per day in the morning and at the same time each day. Piglets in the control group received the same volume of plain water and were dosed on the same schedule. Starting on Day 1, animals in the nicotinamide riboside (NR, I) group were dosed once daily (in the morning) with 277 mg nicotinamide riboside (NR, I) per pig resuspended in water for seven days. After one week, animals were dosed once daily with 342 mg nicotinamide riboside (NR, I) per pig delivered in 2.5 mL for seven days. For Days 1 and 2, the nicotinamide riboside (NR, I) solution was prepared by resuspending 2770 mg nicotinamide riboside (NR, I) in 50 mL water, and 5 mL of this solution was delivered to each pig by squirting it into the back of the mouth using a 10 mL syringe with a piece of tubing attached to the end. To reduce the volume to more efficiently deliver the nicotinamide riboside (NR, I) solution, the 2770 mg was resuspended in 25 mL water and 2.5 mL of the solution was squirted into the back of the mouth of each pig using a 3 mL syringe for Days 3-7. For Days 8-14, 3420 mg nicotinamide riboside (NR, I) was resuspended in 25 mL water and 2.5 mL of this solution was delivered to each pig. Each day prior to dosing, 2.5 mL of the nicotinamide riboside (NR, I) (5 mL on Days 1 and 2) were placed into a separate tube and frozen. Fresh fecal samples were collected from each pig on Days 1 (baseline), 8 (Wk 1), and 14 (Wk 2), and frozen. When a freshly voided sample could not be obtained, the rectum was swabbed. A total of 100 mg of feces from each pig was used for SCFA analysis using gas chromatography with known standards for acetic acid, propionic acid, isobutyric acid, butyric acid, isovaleric acid, and valeric acid. Samples were extracted with 25% metaphosphoric acid and each extraction run in triplicate on a GC equipped with the PeakSimple Chromatography Data System. Data was analyzed using a one-way ANoVA or the non-parametric Kruskal-Wallis test if the distribution of values was not Gaussian. A conservative analysis of the data is presented below (animals that had to be swabbed to get a fecal sample) in Table 3 and an analysis of the data including the swab samples is in Table 8. The trends are similar, the p-values are not.
# [1] = 1 week of daily administration of 277 mg of NR in water
# [2] = Wk 1, 277 mg/pig once daily oral
# [3] = including the swab samples, Baseline, before dosing
# [4] = including the swab samples, Wk 1, 277 mg/pig once daily oral
# [5] = including the swab samples, third column group, headed 'Wk 1' again
# [6] = without swab samples, Baseline, before dosing
# [7] = without swab samples, Wk 1, 277 mg/pig once daily oral
# [8] = without swab samples, third column group, headed 'Wk 1' again
smiles,measurement,setting,value
"NC(=O)c1ccc[n+]([C@@H]2O[C@H](CO)[C@@H](O)[C@H]2O)c1 [NR, Nicotinamide riboside]",Fecal SCFA levels,[1],increased
same,"fecal acetic acid (C2), propionic acid (C3), and butyric acid (C4)",[1],marked increases
same,"Fecal SCFA Acetic Acid, Δ vs. baseline (NR)",[2],15.1 ppm
same,"Fecal SCFA Butyric Acid, Δ vs. baseline (NR)",[2],26.3 ppm
same,"Fecal SCFA Isobutyric Acid, Δ vs. baseline (NR)",[2],−3.4 ppm
same,"Fecal SCFA Isovaleric Acid, Δ vs. baseline (NR)",[2],−4.3 ppm
same,"Fecal SCFA Propionic Acid, Δ vs. baseline (NR)",[2],35.9 ppm
same,"Fecal SCFA Valeric Acid, Δ vs. baseline (NR)",[2],5.4 ppm
same,"Fecal SCFA Acetic Acid, Significant change from baseline within group",Wk 1 vs. baseline,No
same,"Fecal SCFA Butyric Acid, Significant change from baseline within group",Wk 1 vs. baseline,"statistically significant; also recorded: Yes, P < 0.05"
same,"Fecal SCFA Isobutyric Acid, Significant change from baseline within group",Wk 1 vs. baseline,No
same,"Fecal SCFA Isovaleric Acid, Significant change from baseline within group",Wk 1 vs. baseline,No
same,"Fecal SCFA Propionic Acid, Significant change from baseline within group",Wk 1 vs. baseline,"statistically significant; also recorded: Yes, P < 0.05"
same,"Fecal SCFA Valeric Acid, Significant change from baseline within group",Wk 1 vs. baseline,No
same,Fecal SCFA Isobutyric Acid,including the swab samples,7.9 ± 10.9 ppm
same,Fecal SCFA Propionic Acid,including the swab samples,51.5 ± 45.7 ppm
same,Fecal SCFA Valeric Acid,including the swab samples,7.8 ± 11.3 ppm
same,Fecal SCFA Acetic Acid,[3],43.5 ± 23.5 ppm
same,Fecal SCFA Butyric Acid,[3],11.1 ± 18.4 ppm
same,Fecal SCFA Isobutyric Acid,[3],9.5 ± 9.3 ppm
same,Fecal SCFA Isovaleric Acid,[3],16.8 ± 14.0 ppm
same,Fecal SCFA Propionic Acid,[3],15.3 ± 10.6 ppm
same,Fecal SCFA Valeric Acid,[3],2.4 ± 6.9 ppm
same,Fecal SCFA Acetic Acid,[4],58.6 ± 14.5 ppm
same,Fecal SCFA Butyric Acid,[4],37.4 ± 16.8 ppm
same,Fecal SCFA Isobutyric Acid,[4],6.1 ± 6.4 ppm
same,Fecal SCFA Isovaleric Acid,[4],12.5 ± 9.1 ppm
same,Fecal SCFA Propionic Acid,[4],51.2 ± 13.2 ppm
same,Fecal SCFA Valeric Acid,[4],7.8 ± 6.6 ppm
same,Fecal SCFA Acetic Acid,[5],70.1 ± 62.6 ppm
same,Fecal SCFA Butyric Acid,[5],41.2 ± 34.6 ppm
same,Fecal SCFA Isovaleric Acid,[5],11.3 ± 15.7 ppm
same,Fecal SCFA Isobutyric Acid,without swab samples,15.9 ± 10.6 ppm
same,Fecal SCFA Propionic Acid,without swab samples,90.0 ± 30.4 ppm
same,Fecal SCFA Valeric Acid,without swab samples,15.7 ± 11.5 ppm
same,Fecal SCFA Acetic Acid,[6],43.5 ± 23.5 ppm
same,Fecal SCFA Butyric Acid,[6],11.1 ± 18.4 ppm
same,Fecal SCFA Isobutyric Acid,[6],9.5 ± 9.3 ppm
same,Fecal SCFA Isovaleric Acid,[6],16.8 ± 14.0 ppm
same,Fecal SCFA Propionic Acid,[6],15.3 ± 10.6 ppm
same,Fecal SCFA Valeric Acid,[6],2.4 ± 6.9 ppm
same,Fecal SCFA Acetic Acid,[7],55.78 ± 13.4 ppm
same,Fecal SCFA Butyric Acid,[7],36.9 ± 18.3 ppm
same,Fecal SCFA Isobutyric Acid,[7],5.8 ± 6.5 ppm
same,Fecal SCFA Isovaleric Acid,[7],11.9 ± 9.8 ppm
same,Fecal SCFA Propionic Acid,[7],49.3 ± 13.3 ppm
same,Fecal SCFA Valeric Acid,[7],6.7 ± 6.7 ppm
same,Fecal SCFA Acetic Acid,[8],118.7 ± 55.01 ppm
same,Fecal SCFA Butyric Acid,[8],70.8 ± 21.9 ppm
same,Fecal SCFA Isovaleric Acid,[8],22.5 ± 15.5 ppm
